The pIC50 is −log10 of the IC50, conventionally taken in molar units. Broadly, the fraction unbound is the share of the substance not bound to proteins or other matrix. One may read the solubility as the concentration that dissolves in the medium under given conditions. Lower therefore signals a poorly soluble substance. A word on the logD: it is lipophilicity at a set pH, counting ionised and neutral species. In general, inhibition refers to the drop in the measured response relative to a control, in per cent. Higher therefore signals a response far below the control.

pIC50: −log10 of the molar value. In brackets after ≈: the same amount, converted by molar mass.

From ChEMBL document CHEMBL5143662, “Discovery of EP300/CBP histone acetyltransferase inhibitors through scaffold hopping of 1,4-oxazepane ring” (Bioorg Med Chem Lett, 2022) come the findings set out here.

Series [1] concerns the target T1, Histone acetyltransferase p300 (Homo sapiens, UniProt Q09472). The series is described as follows: Inhibition of EP300 in human LK2 cells assessed as reduction in intracellular histone H3 acetylation at lysine 27 residue incubated for 3 hrs by chemiluminescence based ELISA. The class given is cell-based.
Series [2] addresses T1, Histone acetyltransferase p300. The series is described as follows: Inhibition of N-terminal His tagged human EP300 (1159-1666 residues) expressed in Escherichia coli BL21 (DE3) using biotinylated H4 (1 to 25)-GSGSK peptide as substrate incubated for 1 hr by AlphaLISA assay. Background: Bead proximity is the source of the signal in Alpha formats.
Series [3] is described as follows: Metabolic stability in mouse liver microsomes assessed as parent compound remaining measured after 0.5 hr. The class given is ADME, Microsome. The following applies: read-out: Stability.
Series [4] is described as follows: Protein binding in mouse plasma assessed as unbound fraction. Format: ADME, cell-free.
Series [5] has as its system LK-2. The series is described as follows: Antitumor activity against human LK2 cells xenografted in BALB/c nude mouse assessed as suppression of SOX2 mRNA level in […] at 50 to 200 mg/kg, po and measured after 6 hrs by qRT-PCR analysis relative to GADPH. The following applies: dose 50-200 mg/kg, DDE = dose-dependent effect. Format: functional, organism-based. Background: In xenograft studies the graft and the host belong to different species.

Series [6] can be described thus: Solubility of the compound at pH 6.8. The class given is physicochemical. The following applies: buffer.
Series [7] can be described thus: Inhibition of SOX2 mRNA expression in human LK2 cells incubated for 6 hrs by RT-qPCR analysis. The class given is functional, cell-based. The following applies: LK-2, 6 h.
Series [8] concerns LK-2. Put plainly: Antitumor activity against human LK2 cells xenografted in BALB/c nude mouse assessed as suppression of SOX2 mRNA level in tumor at 50 to 200 mg/kg, po and measured after 6 hrs by qRT-PCR analysis relative to GADPH. Format: functional, organism-based. The following applies: dose 50-200 mg/kg, DDE = dose-dependent effect.
The target of series [9] is T2, CREB-binding protein (Homo sapiens, UniProt Q92793). The series is described as follows: Inhibition of CBP (unknown origin) using biotinylated H4 (1 to […])-GSGSK peptide as substrate incubated for 1 hr by AlphaLISA assay.
Target sequence in this assay (Q92793 whole entry): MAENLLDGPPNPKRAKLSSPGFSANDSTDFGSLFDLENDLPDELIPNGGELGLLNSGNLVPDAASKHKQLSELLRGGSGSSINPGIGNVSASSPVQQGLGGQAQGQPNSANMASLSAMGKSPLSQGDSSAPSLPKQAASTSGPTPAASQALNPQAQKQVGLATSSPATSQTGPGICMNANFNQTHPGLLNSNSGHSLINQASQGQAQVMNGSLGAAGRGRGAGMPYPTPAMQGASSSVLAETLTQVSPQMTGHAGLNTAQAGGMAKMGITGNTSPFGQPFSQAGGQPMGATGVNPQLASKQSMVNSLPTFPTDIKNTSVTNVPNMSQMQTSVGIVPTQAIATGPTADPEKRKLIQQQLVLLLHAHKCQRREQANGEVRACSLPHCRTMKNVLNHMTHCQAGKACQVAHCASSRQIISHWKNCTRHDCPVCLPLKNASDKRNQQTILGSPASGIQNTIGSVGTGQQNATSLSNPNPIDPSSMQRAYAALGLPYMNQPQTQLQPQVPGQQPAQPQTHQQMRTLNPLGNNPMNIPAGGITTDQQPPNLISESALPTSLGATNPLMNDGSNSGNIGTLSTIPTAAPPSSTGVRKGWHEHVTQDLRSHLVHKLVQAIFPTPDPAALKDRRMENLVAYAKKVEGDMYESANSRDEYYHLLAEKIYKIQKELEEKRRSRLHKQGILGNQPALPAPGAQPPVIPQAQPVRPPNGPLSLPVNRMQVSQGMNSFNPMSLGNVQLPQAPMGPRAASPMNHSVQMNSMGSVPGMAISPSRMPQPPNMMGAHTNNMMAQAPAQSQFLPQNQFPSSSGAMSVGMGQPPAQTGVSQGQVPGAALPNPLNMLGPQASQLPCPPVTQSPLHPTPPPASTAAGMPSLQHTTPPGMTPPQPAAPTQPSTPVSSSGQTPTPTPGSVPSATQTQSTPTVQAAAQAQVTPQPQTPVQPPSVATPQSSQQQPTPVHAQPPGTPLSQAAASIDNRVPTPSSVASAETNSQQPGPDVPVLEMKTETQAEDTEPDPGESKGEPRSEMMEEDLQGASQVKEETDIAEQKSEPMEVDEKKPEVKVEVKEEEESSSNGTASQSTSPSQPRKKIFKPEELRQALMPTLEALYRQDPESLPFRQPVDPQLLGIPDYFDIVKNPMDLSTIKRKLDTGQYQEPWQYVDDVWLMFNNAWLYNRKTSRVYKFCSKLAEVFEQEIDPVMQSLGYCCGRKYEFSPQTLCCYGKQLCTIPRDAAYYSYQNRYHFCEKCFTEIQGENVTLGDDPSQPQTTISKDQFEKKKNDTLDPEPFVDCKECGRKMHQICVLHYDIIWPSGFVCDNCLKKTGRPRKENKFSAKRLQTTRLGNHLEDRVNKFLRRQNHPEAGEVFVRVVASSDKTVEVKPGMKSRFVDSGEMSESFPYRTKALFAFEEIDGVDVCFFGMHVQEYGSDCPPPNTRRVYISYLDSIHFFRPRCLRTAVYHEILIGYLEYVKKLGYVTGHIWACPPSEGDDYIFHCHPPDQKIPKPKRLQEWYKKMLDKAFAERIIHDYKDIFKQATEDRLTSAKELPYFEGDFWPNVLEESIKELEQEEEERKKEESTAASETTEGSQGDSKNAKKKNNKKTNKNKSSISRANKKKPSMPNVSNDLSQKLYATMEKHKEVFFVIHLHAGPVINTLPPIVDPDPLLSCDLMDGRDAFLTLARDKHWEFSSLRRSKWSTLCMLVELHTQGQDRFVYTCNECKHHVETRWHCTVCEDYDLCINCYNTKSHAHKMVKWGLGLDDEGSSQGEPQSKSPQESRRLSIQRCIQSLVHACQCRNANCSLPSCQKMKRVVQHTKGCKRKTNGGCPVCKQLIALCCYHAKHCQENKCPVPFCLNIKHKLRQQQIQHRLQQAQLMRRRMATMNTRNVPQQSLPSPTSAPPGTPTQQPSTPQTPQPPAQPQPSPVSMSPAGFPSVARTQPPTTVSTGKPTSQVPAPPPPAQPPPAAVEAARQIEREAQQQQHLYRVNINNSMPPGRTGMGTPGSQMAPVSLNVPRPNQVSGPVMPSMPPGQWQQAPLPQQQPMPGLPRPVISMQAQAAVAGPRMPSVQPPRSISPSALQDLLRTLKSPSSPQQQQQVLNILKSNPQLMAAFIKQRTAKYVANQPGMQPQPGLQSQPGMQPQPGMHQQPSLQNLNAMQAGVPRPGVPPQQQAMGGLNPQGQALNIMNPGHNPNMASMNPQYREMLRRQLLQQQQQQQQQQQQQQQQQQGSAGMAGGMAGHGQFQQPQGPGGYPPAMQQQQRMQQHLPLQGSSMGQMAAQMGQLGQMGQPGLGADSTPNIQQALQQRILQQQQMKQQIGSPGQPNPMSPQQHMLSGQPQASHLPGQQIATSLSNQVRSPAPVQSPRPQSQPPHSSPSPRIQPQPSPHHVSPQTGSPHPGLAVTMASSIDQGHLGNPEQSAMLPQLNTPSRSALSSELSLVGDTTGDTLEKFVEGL
Series [10] in a line: Lipophilicity, logD of compound. Format: physicochemical. The following applies: octanol/water.
A short description of series [11]: Permeability of compound at pH 5.0 by PAMPA assay. The class given is ADME. The following applies: read-out: permeability. A general note: PAMPA measures passive passage across an artificial lipid membrane.
Series [12] can be described thus: Solubility of the compound at pH 1.2. Format: physicochemical. The following applies: buffer.
A short description of series [13]: Permeability of compound at pH 7.4 by PAMPA assay. Format: ADME. The following applies: read-out: permeability.
Series [14] has as its target Histone acetyltransferase KAT2A (Homo sapiens, UniProt Q92830). The series is described as follows: Inhibition of GST tagged human GCN5 (323 to end residues) expressed in Sf9 cells using biotinylated H3 (1 to 21)-GGK peptide as substrate incubated for 1 hr by AlphaLISA assay.
The target in series [15] is Histone acetyltransferase KAT2B (Homo sapiens, UniProt Q92831). The series is described as follows: Inhibition of GST tagged human PCAF (431 to end residues) expressed in Sf9 cells using biotinylated H3 (1 to 21)-GGK peptide as substrate incubated for 1 hr by AlphaLISA assay.
For series [16], the target named is T2, CREB-binding protein. The series is described as follows: Inhibition of CBP (unknown origin) at 50 uM using biotinylated H4 (1 to 25)-GSGSK peptide as substrate incubated for 1 hr by AlphaLISA assay relative to control.
For series [17], the target named is Histone acetyltransferase KAT5 (Homo sapiens, UniProt Q92993). The series is described as follows: Inhibition of GST tagged human TIP60 expressed in Sf9 cells using biotinylated H4 (1 to 25)-GSGSK peptide as substrate incubated for 1 hr by AlphaLISA assay.
Series [18] deals with Histone acetyltransferase KAT6B (Homo sapiens, UniProt Q8WYB5). The series is described as follows: Inhibition of MYST4 (unknown origin) using biotinylated H4 (1 to […])-GSGSK peptide as substrate incubated for 1 hr by AlphaLISA assay.
In series [19] the target is Histone acetyltransferase KAT7 (Homo sapiens, UniProt O95251). Put plainly: Inhibition of MYST2 (unknown origin) using biotinylated H4 (1 to […])-GSGSK peptide as substrate incubated for 1 hr by AlphaLISA assay.

T1 sequence (Q09472 whole entry, the tested form may be a part): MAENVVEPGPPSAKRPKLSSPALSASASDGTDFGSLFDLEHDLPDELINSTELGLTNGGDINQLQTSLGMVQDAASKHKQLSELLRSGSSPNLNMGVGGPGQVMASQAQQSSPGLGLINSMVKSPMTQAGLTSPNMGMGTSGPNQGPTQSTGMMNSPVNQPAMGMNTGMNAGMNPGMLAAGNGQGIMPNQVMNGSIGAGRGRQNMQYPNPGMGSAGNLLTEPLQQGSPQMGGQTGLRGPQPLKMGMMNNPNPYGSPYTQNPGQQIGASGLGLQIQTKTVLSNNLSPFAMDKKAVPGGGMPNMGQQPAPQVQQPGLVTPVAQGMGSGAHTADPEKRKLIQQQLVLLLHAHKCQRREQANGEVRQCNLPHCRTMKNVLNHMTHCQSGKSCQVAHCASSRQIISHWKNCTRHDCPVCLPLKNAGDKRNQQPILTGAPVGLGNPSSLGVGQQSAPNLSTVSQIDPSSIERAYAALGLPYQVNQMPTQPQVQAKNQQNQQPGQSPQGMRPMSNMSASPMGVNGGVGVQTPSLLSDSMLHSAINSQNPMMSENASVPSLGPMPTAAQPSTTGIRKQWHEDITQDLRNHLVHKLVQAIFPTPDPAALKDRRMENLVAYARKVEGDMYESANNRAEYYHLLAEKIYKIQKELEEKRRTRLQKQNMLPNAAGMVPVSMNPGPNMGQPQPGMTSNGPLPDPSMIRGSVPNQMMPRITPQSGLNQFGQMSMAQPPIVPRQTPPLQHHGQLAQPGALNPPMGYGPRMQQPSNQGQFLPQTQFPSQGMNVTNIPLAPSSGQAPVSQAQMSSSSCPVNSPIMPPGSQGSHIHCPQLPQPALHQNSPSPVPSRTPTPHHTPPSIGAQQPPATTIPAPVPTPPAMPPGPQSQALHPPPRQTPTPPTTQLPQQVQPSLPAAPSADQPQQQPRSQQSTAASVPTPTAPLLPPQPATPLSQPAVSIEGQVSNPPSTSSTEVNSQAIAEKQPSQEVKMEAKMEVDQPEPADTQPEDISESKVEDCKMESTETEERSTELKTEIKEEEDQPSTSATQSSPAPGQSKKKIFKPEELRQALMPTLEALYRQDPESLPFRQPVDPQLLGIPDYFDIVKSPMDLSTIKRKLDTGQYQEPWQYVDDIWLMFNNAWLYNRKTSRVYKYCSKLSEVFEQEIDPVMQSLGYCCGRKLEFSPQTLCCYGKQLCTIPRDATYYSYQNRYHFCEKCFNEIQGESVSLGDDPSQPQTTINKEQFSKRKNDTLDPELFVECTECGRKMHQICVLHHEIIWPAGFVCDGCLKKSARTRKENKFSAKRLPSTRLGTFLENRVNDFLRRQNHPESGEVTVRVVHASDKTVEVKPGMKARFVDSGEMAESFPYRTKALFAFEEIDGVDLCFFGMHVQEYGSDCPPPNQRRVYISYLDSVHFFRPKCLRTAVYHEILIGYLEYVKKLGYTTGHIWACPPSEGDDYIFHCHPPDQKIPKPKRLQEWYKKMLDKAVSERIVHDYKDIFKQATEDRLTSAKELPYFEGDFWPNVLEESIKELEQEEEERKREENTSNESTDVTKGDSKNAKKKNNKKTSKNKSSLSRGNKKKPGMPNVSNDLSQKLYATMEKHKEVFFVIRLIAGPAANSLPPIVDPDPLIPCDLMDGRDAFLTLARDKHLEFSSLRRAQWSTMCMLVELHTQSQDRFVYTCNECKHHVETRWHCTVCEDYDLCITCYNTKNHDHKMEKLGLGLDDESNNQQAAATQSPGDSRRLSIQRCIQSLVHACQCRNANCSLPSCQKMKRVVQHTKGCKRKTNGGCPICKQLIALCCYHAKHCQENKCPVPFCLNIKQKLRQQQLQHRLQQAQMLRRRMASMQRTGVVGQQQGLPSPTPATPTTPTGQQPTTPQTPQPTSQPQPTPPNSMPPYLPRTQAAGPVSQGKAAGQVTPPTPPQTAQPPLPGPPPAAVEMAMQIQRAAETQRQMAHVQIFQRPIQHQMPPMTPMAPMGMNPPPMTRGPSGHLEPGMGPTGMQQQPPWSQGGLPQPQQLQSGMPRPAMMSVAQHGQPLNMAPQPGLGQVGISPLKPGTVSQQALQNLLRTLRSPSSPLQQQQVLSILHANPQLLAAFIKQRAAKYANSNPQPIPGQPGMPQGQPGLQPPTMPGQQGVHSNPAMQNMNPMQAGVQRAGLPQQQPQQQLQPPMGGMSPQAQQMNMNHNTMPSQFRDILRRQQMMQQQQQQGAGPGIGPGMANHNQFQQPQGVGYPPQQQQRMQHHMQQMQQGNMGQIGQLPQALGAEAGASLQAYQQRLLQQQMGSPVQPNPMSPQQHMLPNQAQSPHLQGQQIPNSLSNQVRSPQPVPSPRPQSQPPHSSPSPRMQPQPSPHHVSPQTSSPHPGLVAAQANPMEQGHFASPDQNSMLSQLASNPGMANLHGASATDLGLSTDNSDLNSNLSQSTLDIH

For the compound `COc1ccc(C2(C(=O)N3CCOCC(Cc4cccc5[nH]ncc45)C3)CCCC2)cc1` (single isomer, unassigned; (-)), in series [1], the pIC50 is under 4.60.

For `COc1ccc(C2(C(=O)N(C)[C@H](C)C(=O)Nc3cccc4[nH]ncc34)CCCC2)cc1`, the pIC50 was 5.30 in series [1] and 6.66 in [2].

As to `COc1ccc(C2(C(=O)N3CCOCC(Cc4cccc5[nH]ncc45)C3)CCCCC2)cc1` (stereo not given), the pIC50 in series [1] was 6.21; in [2], 6.85.

`COc1ccc(C2(C(=O)N3C[C@@H](O)C[C@@H]3C(=O)Nc3cccc4[nH]ncc34)CCCC2)cc1`: the pIC50 in series [1] was 5.84; in series [2], 6.04. The remaining at 0.5 h in series [3] came out at 57%.

In the case of `COc1ccc(C2(C(=O)N3C[C@H](O)C[C@@H]3C(=O)Nc3cccc4[nH]ncc34)CCCC2)cc1`, in [1], the pIC50 was 5.99. Moreover, the remaining at 0.5 h in [3] turned out to be 47%.

With `COc1ccc(C2(C(=O)N3CCOCC(Cc4cccc5[nH]ncc45)C3)CCCC2)cc1` (single isomer, unassigned; (+)), the negative logarithm of the IC50 (pIC50) in series [1] was 6.89; in [2], 7.30.

Turning to `COc1ccc(C2(C(=O)N(C)CC(=O)Nc3cccc4[nH]ncc34)CCCCC2)cc1`, the pIC50 in series [1] was 6.00; in series [2], 6.72.

Consider `COc1ccc(C2(C(=O)N3CCOCC(Cc4cccc5[nH]ncc45)C3)CCOCC2)cc1` (stereo not given), for which the pIC50 in series [1] is 5.65; in [2], 6.21.

In the case of `COc1ccc(C2(C(=O)N3CS(=O)(=O)C[C@@H]3C(=O)Nc3cccc4[nH]ncc34)CCCC2)cc1`, in series [4], the fraction unbound stood at 0.952. The Activity result in the series on LK-2 [5] and in the series with LK-2 [8] was “Dde” throughout. Further, the solubility in series [6] worked out at 50 µg/mL (≈ 104 µM); in series [12], 63 µg/mL (≈ 131 µM). Besides, the pIC50 in series [7] was 6.15; in series [1], 6.35; in [2] it was 6.82; on CREB-binding protein [9], 7.40. Further, the remaining at 0.5 h in series [3] was 37%. The compound also came in with a log distribution coefficient (logD) in series [10] of 3.2. In addition, the Papp in [11] and in series [13] was over 50 ×10⁻⁶ cm/s throughout.

On to `COc1ccc(C2(C(=O)N3CCOCC(Cc4cccc5[nH]ncc45)C3)CCCC2)cc1` (stereo in doubt; 3), for which the pIC50 in [1] is 6.42; in series [2] it was 6.89.

Consider `COc1ccc(C2(C(=O)N3CCC[C@@H]3C(=O)Nc3cccc4[nH]ncc34)CCCC2)cc1`, for which the pIC50 in series [2] was 6.74. The remaining at 0.5 h in series [3] amounted to 10%.

Consider `CC1=NN(c2ccc(C(=O)O)cc2)C(=O)/C1=C\c1ccc(-c2cc(C)c(C)cc2[N+](=O)[O-])o1`, for which the pIC50 was 4.32 in series [14]; 4.41 in series [15]; under 4.30 on CREB-binding protein [9]; 4.43 in [17]; 4.68 in [18]; 5.11 in series [19]. On CREB-binding protein [16], this compound showed an inhibition of 29%.

For `COc1ccc(C2(C(=O)N3CCC[C@@H]3C(=O)Nc3cccc4[nH]ncc34)CCCCC2)cc1`, the negative-log IC50 (pIC50) was 6.38 in series [1] and 6.77 in series [2].

Regarding `COc1ccc(C2(C(=O)N3C[C@H](F)C[C@@H]3C(=O)Nc3cccc4[nH]ncc34)CCCC2)cc1`, the results for the pIC50 in series [1] and in [2] were 6.34 and 7.25, respectively. Moreover, in series [3], the remaining at 0.5 h came out at 5%.
